From patent publication US7605170B2, “8-azabicyclo[3.2.1]octane derivatives” (N.V. Organon, priority 2005, dated 2009)

What was measured:
Format in all cases: cell-based
[1] = biological target: T1, human serotonin transporter (hSERT) (Homo sapiens, UniProt P31645); experiment: Assay of monoamine uptake: inhibition of serotonin uptake; details: Chinese Hamster Ovary cells expressing hSERT; 20 nM [3H]-neurotransmitter mixture; ambient temperature; read-out: hSERT pEC50 (inhibition of serotonin uptake) (converted)
T1 construct: expressed in transfected cells
Experimental: (§1) The in vitro test for the inhibition of dopamine and serotonin uptake was performed in Chinese Hamster Ovary cells expressing the human dopamine transporter (hDAT) or the human serotonin transporter (hSERT). The in vitro test for the inhibition of noradrenaline uptake was performed in Madin Darby Canine Kidney Cells (MDCK) expressing the human noradrenaline transporter (hNET). Briefly, cell lines stably overexpressing the appropriate human transporter were propagated and plated according to standard cell culture techniques. Following plating, cells were left to adhere for either one or two days. A 6-point serial dilution (normally 1E-5M to 1E-10M) of test and reference compounds was prepared, added to the washed cells and incubated for 5 minutes at ambient temperature for dopamine or serotonin transporter overexpressing and 37° C. for noradrenaline overexpressing cells. Next, a final concentration of 20 nM of appropriate neurotransmitter (mixture of [^3H]-neurotransmitter and non-labelled neurtoransmitter) was added and the cells were incubated for three or five minutes at ambient temperature for dopamine or serotonin transporter overexpressing cells or ten minutes at 37° C. for noradrenaline overexpressing cells. Following termination of the assay, Microscint-20 was added directly to the cells and the amount of radioactivity taken up by the cells was estimated by scintillation counting.
(§2) pEC50 values indicating inhibition of monoamine uptake were calculated using standard curve fitting techniques.

[2] = biological target: T2, human dopamine transporter (hDAT) (Homo sapiens, UniProt Q01959); experiment: Assay of monoamine uptake: inhibition of dopamine uptake; details: Chinese Hamster Ovary cells expressing hDAT; 20 nM [3H]-neurotransmitter mixture; ambient temperature; read-out: hDAT pEC50 (inhibition of dopamine uptake) (converted)
T2 construct: expressed in transfected cells
Experimental: as §1, §2

[3] = biological target: T3, human noradrenaline transporter (hNET) (Homo sapiens, UniProt P23975); experiment: Assay of monoamine uptake: inhibition of noradrenaline uptake; details: MDCK cells expressing hNET; 20 nM [3H]-neurotransmitter mixture; 37° C.; read-out: hNET pEC50 (inhibition of noradrenaline uptake) (converted)
T3 construct: expressed in transfected cells
Experimental: as §1, §2

T2 sequence (Q01959 whole entry): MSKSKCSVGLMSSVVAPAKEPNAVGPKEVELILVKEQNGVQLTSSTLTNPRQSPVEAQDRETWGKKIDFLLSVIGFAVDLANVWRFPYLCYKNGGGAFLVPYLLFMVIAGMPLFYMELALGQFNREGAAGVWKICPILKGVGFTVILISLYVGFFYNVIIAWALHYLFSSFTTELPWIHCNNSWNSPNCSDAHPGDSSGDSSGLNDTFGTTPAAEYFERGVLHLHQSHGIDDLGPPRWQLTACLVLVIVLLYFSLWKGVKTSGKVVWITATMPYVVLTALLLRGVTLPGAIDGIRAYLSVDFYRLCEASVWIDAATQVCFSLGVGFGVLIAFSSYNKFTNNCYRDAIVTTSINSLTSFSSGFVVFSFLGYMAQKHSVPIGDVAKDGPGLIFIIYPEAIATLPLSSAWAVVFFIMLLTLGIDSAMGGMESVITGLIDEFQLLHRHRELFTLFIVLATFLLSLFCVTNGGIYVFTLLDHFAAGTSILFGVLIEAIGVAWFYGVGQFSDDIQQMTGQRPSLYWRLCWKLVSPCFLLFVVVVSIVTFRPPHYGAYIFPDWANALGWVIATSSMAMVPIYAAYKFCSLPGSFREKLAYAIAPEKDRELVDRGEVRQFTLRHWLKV
T3 sequence (P23975 whole entry): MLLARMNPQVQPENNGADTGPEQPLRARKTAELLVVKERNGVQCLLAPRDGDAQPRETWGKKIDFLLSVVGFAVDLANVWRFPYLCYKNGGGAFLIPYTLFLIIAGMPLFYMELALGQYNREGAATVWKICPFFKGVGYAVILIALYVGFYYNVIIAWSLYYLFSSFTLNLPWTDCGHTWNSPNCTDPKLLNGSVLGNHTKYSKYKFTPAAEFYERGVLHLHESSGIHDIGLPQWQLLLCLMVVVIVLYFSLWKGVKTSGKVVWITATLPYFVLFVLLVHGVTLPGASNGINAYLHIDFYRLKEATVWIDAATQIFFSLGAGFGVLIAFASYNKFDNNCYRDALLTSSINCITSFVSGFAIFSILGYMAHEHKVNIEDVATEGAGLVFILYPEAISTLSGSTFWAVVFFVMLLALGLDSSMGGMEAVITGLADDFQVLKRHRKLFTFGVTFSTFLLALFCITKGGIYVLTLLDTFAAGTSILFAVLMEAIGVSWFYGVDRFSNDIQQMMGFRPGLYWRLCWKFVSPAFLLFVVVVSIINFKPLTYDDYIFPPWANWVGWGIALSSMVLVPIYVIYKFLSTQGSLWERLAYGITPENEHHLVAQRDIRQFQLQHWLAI
T1 sequence (P31645 whole entry): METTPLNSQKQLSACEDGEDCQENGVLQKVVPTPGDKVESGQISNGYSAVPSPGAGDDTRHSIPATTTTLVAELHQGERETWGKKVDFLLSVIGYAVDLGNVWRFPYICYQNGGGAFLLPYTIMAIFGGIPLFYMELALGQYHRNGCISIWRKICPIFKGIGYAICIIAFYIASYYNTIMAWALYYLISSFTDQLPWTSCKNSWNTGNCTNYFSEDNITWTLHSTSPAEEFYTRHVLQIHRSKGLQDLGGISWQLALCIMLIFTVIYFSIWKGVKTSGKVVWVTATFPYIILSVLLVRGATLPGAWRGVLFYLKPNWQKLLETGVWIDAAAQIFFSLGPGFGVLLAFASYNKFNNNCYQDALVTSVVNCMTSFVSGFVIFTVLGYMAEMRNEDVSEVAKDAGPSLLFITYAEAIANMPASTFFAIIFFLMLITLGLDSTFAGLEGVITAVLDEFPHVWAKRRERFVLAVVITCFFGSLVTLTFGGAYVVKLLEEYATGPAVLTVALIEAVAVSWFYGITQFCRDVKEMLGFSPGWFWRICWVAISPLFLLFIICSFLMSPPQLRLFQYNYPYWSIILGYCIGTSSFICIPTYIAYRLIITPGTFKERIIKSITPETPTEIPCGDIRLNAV

Row | SMILES | EC50 [1] | EC50 [2] | EC50 [3]
1 | FC(F)(F)c1ccc(O[C@@H]2C[C@H]3CC[C@@H](C2)N3)cc1-c1ccccc1 [VI.3, 3-exo-(6-Trifluoromethylbiphenyl-3-yloxy)-8-azabicyclo[3.2.1]octane] | 0.1 to 1 µM | > 1 µM | > 1 µM
2 | c1ccc(Oc2cccc(O[C@H]3C[C@H]4CC[C@@H](C3)N4)c2)cc1 [III.5, 3-endo-(3-Phenoxyphenoxy)-8-azabicyclo[3.2.1]octane] | > 1 µM | < 0.1 µM | 0.1 to 1 µM
3 | COc1cc(Oc2ccccc2)cc(O[C@@H]2C[C@H]3CC[C@@H](C2)N3)c1F [IV.9, 3-exo-(2-Fluoro-3-methoxy-5-phenoxyphenoxy)-8-azabicyclo[3.2.1]octane] | > 1 µM | < 0.1 µM | < 0.1 µM
4 | N#Cc1ccc(-c2cc(C#N)cc(O[C@@H]3C[C@H]4CC[C@@H](C3)N4)c2)cc1 [VI.8, exo 5-(8-Azabicyclo[3.2.1]oct-3-yloxy)-biphenyl-3,4′-dicarbonitrile] | < 0.1 µM | > 1 µM | > 1 µM
5 | FC(F)(F)c1ccccc1-c1cccc(O[C@@H]2C[C@H]3CC[C@@H](C2)N3)c1 [IV.8, 3-exo-(2′-Trifluoromethylbiphenyl-3-yloxy)-8-azabicyclo[3.2.1]octane] | 0.1 to 1 µM | > 1 µM | < 0.1 µM
6 | N#Cc1ccc(-c2cc(C#N)cc(O[C@@H]3C[C@H]4CC[C@@H](C3)N4)c2)nc1 [IX.3, exo 6-(3-(8-Azabicyclo[3.2.1]oct-3-yloxy)-5-cyanophenyl)nicotinonitrile] | < 0.1 µM | > 1 µM | > 1 µM
7 | Clc1cc(Oc2ccccc2)cc(O[C@@H]2C[C@H]3CC[C@@H](C2)N3)c1 [IV.19, 3-exo-(3-Chloro-5-phenoxyphenoxy)-8-azabicyclo[3.2.1]octane] | > 1 µM | < 0.1 µM | < 0.1 µM
